Measurements: patent US9062078B2, “Substituted 7-azabicyles and their use as orexin receptor modulators” (priority 2013, dated 2015)
Read-outs that look alike come from different tables or passages of the source.

Key:
human orexin 2 receptor = human orexin 2 receptor (Homo sapiens (Human), UniProt O43614); assay: Human orexin 2 receptor radioligand binding (competitive, [3H]-EMPA, HEK293 cell preparations)
rat orexin 1 receptor = rat orexin 1 receptor (Rattus norvegicus, UniProt P56718); assay: Rat orexin 1 receptor radioligand binding (competitive, [3H]-SB674042, HEK293 cell preparations)
[1] = human orexin 2 receptor, [3H]-EMPA competition binding, read-out: hOX2 Ki (nm)
[2] = rat orexin 1 receptor, [3H]-SB674042 competition binding, read-out: rOX1 Ki (nm)

human orexin 2 receptor, sequence (O43614 whole entry): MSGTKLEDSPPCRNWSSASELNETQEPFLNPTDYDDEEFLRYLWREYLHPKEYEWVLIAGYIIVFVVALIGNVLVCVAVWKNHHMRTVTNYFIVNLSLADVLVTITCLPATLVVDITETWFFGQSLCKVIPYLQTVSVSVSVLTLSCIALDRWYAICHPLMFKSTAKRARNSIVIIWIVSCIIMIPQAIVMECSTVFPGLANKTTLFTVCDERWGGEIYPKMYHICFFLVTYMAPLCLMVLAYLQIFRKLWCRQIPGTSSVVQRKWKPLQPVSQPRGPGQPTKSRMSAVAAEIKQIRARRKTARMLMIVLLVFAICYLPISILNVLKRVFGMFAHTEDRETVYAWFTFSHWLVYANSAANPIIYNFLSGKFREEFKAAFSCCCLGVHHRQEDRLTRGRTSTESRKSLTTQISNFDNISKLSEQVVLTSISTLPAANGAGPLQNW

SMILES | Ki (human orexin 2 receptor; [1]) | Ki (rat orexin 1 receptor; [2]) | Ki (rat orexin 1 receptor; rOX1 Ki (nm)) | Ki (human orexin 2 receptor; hOX2 Ki (nm))
O=C(c1nc2ccccc2[nH]1)N1[C@@H]2CC[C@H]1[C@H](Nc1cnc(C(F)(F)F)cn1)C2 [Example 250, (1H-benzo[d]imidazol-2-yl)((1S,2R,4R)-2-((5-(trifluoromethyl)pyrazin-2-yl)amino)-7-azabicyclo[2.2.1]heptan-7-yl)methanone] | > 10000 nM | 5650 nM | – | –
Cc1cccc(-c2ncccn2)c1C(=O)N1C2CCC1C(COc1ccc(F)cn1)C2 (racemic) [Example 123, (±)-(2-(((5-fluoropyridin-2-yl)oxy)methyl)-7-azabicyclo[2.2.1]heptan-7-yl)(2-methyl-6-(pyrimidin-2-yl)phenyl)methanone] | 286 nM | – | 400 nM | –
O=C(c1ccccc1-n1nccn1)N1C2CCC1C(Nc1ccc(C(F)(F)F)nn1)C2 (racemic) [Example 212, (±)-(2-(2H-1,2,3-triazol-2-yl)phenyl)(2-(6-(trifluoromethyl)pyridazin-3-yl)amino)-7-azabicyclo[2.2.1]heptan-7-yl)methanone] | – | 734 nM | – | 4900 nM
O=C(c1cccc(F)c1-c1ncccn1)N1C2CCC1C(Oc1ncc(C(F)(F)F)cn1)C2 (single isomer, unassigned) [Example 285, (±)-(3-fluoro-2-(pyrimidin-2-yl)phenyl)(2-(5-(trifluoromethyl)pyrimidin-2-yl)oxy)-7-azabicyclo[2.2.1]heptan-7-yl)methanone] | > 10000 nM | 720 nM | – | –
Cc1ccc(-n2cccn2)c(C(=O)N2C3CCC2C(COc2ccccn2)C3)n1 (racemic) [Example 95, (±)-(6-methyl-3-(1H-pyrazol-1-yl)pyridin-2-yl)(2-((pyridin-2-yloxy)methyl)-7-azabicyclo[2.2.1]heptan-7-yl)methanone] | 3700 nM | 247 nM | – | –
Cc1ccc(-n2nccn2)c(C(=O)N2C3CCC2C(COc2cccnn2)C3)n1 (racemic) [Example 53, (±)-(6-methyl-3-(2H-1,2,3-triazol-2-yl)pyridin-2-yl)(2-((pyridazin-3-yloxy)methyl)-7-azabicyclo[2.2.1]heptan-7-yl)methanone] | – | 2200 nM | – | > 10000 nM
COc1c(F)cccc1C(=O)N1C2CCC1C(Nc1cnc3ccccc3n1)C2 (single isomer, unassigned) [Example 206, (±)-(3-fluoro-2-methoxyphenyl)(2-(quinoxalin-2-ylamino)-7-azabicyclo[2.2.1]heptan-7-yl)methanone] | 1500 nM | 1200 nM | – | –
O=C(c1cccc(F)c1I)N1[C@@H]2CC[C@H]1[C@H](Nc1ncc(C(F)(F)F)cn1)C2 [Example 277, (3-fluoro-2-iodophenyl)((1S,2R,4R)-2-((5-(trifluoromethyl)pyrimidin-2-yl)amino)-7-azabicyclo[2.2.1]heptan-7-yl)methanone] | 7400 nM | 457 nM | – | –
Cc1nc2sccn2c1C(=O)N1[C@@H]2CC[C@H]1[C@H](Nc1cnc(C(F)(F)F)cn1)C2 [Example 259, (6-methylimidazo[2,1-b]thiazol-5-yl)((1S,2R,4R)-2-((5-(trifluoromethyl)pyrazin-2-yl)amino)-7-azabicyclo[2.2.1]heptan-7-yl)methanone] | > 10000 nM | > 10000 nM | – | –
Cc1ccc2ncc(C)n2c1C(=O)N1C2CCC1C(COc1ccccn1)C2 (racemic) [Example 76, (±)-(3,6-dimethylimidazo[1,2-a]pyridin-5-yl)(2-((pyridin-2-yloxy)methyl)-7-azabicyclo[2.2.1]heptan-7-yl)methanone] | > 10000 nM | > 10000 nM | – | –
O=C(c1cc(F)ccc1-n1nccn1)N1C2CCC1C(CNc1cnc3ccccc3n1)C2 (racemic) [Example 174, (±)-(5-fluoro-2-(2H-1,2,3-triazol-2-yl)phenyl)(2-((quinoxalin-2-ylamino)methyl)-7-azabicyclo[2.2.1]heptan-7-yl)methanone] | 1000 nM | 373 nM | – | –
Cc1ccc(-n2nccn2)c(C(=O)N2C3CCC2C(Nc2cnc4ccccc4n2)C3)n1 (racemic) [Example 230, (±)-(6-methyl-3-(2H-1,2,3-triazol-2-yl)pyridin-2-yl)(2-(quinoxalin-2-ylamino)-7-azabicyclo[2.2.1]heptan-7-yl)methanone] | – | – | > 10000 nM | > 10000 nM
Cc1cnc(C(=O)N2C3CCC2C(Nc2ccc(C(F)(F)F)cn2)C3)c(-n2nccn2)c1 (racemic) [Example 188, (±)-(5-methyl-3-(2H-1,2,3-triazol-2-yl)pyridin-2-yl)(2-(5-(trifluoromethyl)pyridin-2-yl)amino)-7-azabicyclo[2.2.1]heptan-7-yl)methanone] | 1500 nM | – | 295 nM | –
Cc1ccc(-n2cccn2)c(C(=O)N2C3CCC2C(COc2ncc(F)cn2)C3)n1 (racemic) [Example 104, (±)-(2-(((5-fluoropyrimidin-2-yl)oxy)methyl)-7-azabicyclo[2.2.1]heptan-7-yl)(6-methyl-3-(1H-pyrazol-1-yl)pyridin-2-yl)methanone] | – | – | 1100 nM | 4600 nM
CCOc1nccc(C)c1C(=O)N1C2CCC1C(COc1ccccn1)C2 (racemic) [Example 155, (±)-(2-ethoxy-4-methylpyridin-3-yl)(2-((pyridin-2-yloxy)methyl)-7-azabicyclo[2.2.1]heptan-7-yl)methanone] | 3600 nM | – | 1570 nM | –
COc1c(F)cccc1C(=O)N1C2CCC1C(COc1ccc(Br)cn1)C2 (racemic) [Example 50, (±)-(2-(((5-bromopyridin-2-yl)oxy)methyl)-7-azabicyclo[2.2.1]heptan-7-yl)(3-fluoro-2-methoxyphenyl)methanone] | 4400 nM | 460 nM | – | –
O=C(c1cccc(F)c1-c1ncccn1)N1[C@@H]2CC[C@H]1[C@H](Nc1nccn3c(Br)cnc13)C2 [Example 270, ((1S,2R,4R)-2-((3-bromoimidazo[1,2-a]pyrazin-8-yl)amino)-7-azabicyclo[2.2.1]heptan-7-yl)(3-fluoro-2-(pyrimidin-2-yl)phenyl)methanone] | 145 nM | 325 nM | – | –
COc1ccc(C(=O)N2C3CCC2C(Nc2ccc(C(F)(F)F)cn2)C3)c(-n2nccn2)c1 (racemic) [Example 191, (±)-(4-methoxy-2-(2H-1,2,3-triazol-2-yl)phenyl)(2-(5-(trifluoromethyl)pyridin-2-yl)amino)-7-azabicyclo[2.2.1]heptan-7-yl)methanone] | 8800 nM | – | 257 nM | –
Cc1ccc(C(=O)N2C3CCC2C(Nc2ccc(C(F)(F)F)cn2)C3)c(-n2nccn2)n1 (racemic) [Example 189, (±)-(6-methyl-2-(2H-1,2,3-triazol-2-yl)pyridin-3-yl)(2-(5-(trifluoromethyl)pyridin-2-yl)amino)-7-azabicyclo[2.2.1]heptan-7-yl)methanone] | – | 766 nM | – | 1500 nM
O=C(c1cncc2ccccc12)N1[C@@H]2CC[C@H]1[C@H](Nc1cnc(C(F)(F)F)cn1)C2 [Example 240, isoquinolin-4-yl((1S,2R,4R)-2-((5-(trifluoromethyl)pyrazin-2-yl)amino)-7-azabicyclo[2.2.1]heptan-7-yl)methanone] | 2100 nM | 400 nM | – | –
CCOc1ccc(C)nc1C(=O)N1[C@@H]2CC[C@H]1[C@H](Nc1cnc(C(F)(F)F)cn1)C2 [Example 287, (3-ethoxy-6-methylpyridin-2-yl)((1S,2R,4R)-2-((5-(trifluoromethyl)pyrazin-2-yl)amino)-7-azabicyclo[2.2.1]heptan-7-yl)methanone] | 767 nM | 472 nM | – | –
